{
  "source": "patent US9192560B2",
  "about": "“Stable composition comprising an anti-ageing compound and a solvent” (CHANEL PARFUMS BEAUTE, priority 2012, dated 2015)",
  "key": {"[1]": {"assay": "Study of olfactory stability of Base with odor absorber", "description": "A Base composition as follows was prepared. In this composition, octocrylene is used as diacetylresveratryl thioctate-stabilizing solvent.\n0.6% of each candidate odor absorber was added to one of the base compositions above and the olfactory stability was tested at three temperatures (ambient temperature, 5° C. and 45° C.) and at the following times: • at the beginning (to), • 1 month (1M), • 2 months (2M) and • 3 months (3M)."}, "[2]": {"assay": "Stability of diacetylresveratryl thioctate in the formulation with odor absorber", "assay_type": "physicochemical", "conditions": "0.6% odor absorber in Base (0.10% diacetylresveratryl thioctate), two months", "description": "A diacetylresveratryl thioctate stability test was carried out for the odor absorbers retained in Example 3, according to the following protocol, for the purpose of confirming the compatibility between the solvent and the odor absorber."}, "[3]": {"assay": "Diacetylresveratryl thioctate stabilization test in candidate solvents (solubility at t0 and a day later)", "conditions": "for Solubility 1 D/AT / Solubility t0/AT: diacetylresveratryl thioctate in the named solvent, ambient temperature; for Solubility 1 D/AT: a day later; for Solubility t0/AT: initial; for Stability: stabilization of diacetylresveratryl thioctate by the named solvent", "experimental": "The term “stabilization” is intended to mean an absence of crystallization of diacetylresveratryl thioctate after 10 days at 4° C. and six months at AT.\nThe candidate solvents thus chosen are then subjected to the stabilization test. This test consists in comparing the initial solubility (t0) and the solubility a day later (1D) at ambient temperature (AT)."}, "[4]": {"assay": "Resveratrol stabilization test in solvents (comparative example)", "assay_type": "physicochemical", "description": "The stabilization of resveratrol by dimethyl isosorbide, ethylhexyl methoxycrylene and octocrylene was evaluated according to the same protocol as Example 1-a, except that the solubility was evaluated on the same day as to (0D)."}, "[5]": {"conditions": "listed as ethylhexyl methoxycrylene"}},
  "note": "Read-outs that look alike come from different tables or passages of the source.",
  "data": [
    {"molecule": "Kaolin", "values": [
      {"measurement": "olfactory stability t0", "setting": "[1]", "value": "Yes"}
    ]},
    {"molecule": "O=C1CC[C@@H](C(=O)[O-])N1.O=C1CC[C@@H](C(=O)[O-])N1.[Cu+2]", "note": "[Copper L-pyrrolidone carboxylate salt]", "values": [
      {"measurement": "degree of diacetylresveratryl thioctate stabilization 5° C.", "setting": "[2]; 5° C.", "value": 0.1},
      {"measurement": "degree of diacetylresveratryl thioctate stabilization 45° C.", "setting": "[2]; 45° C.", "value": 0.094},
      {"measurement": "olfactory stability 1 M", "setting": "[1]; 0.6% odor absorber in Base, 1 month, identical at AT, 5° C. and 45° C.", "value": "Yes"},
      {"measurement": "olfactory stability 2 M 5° C.", "setting": "[1]; 0.6% odor absorber in Base, 2 months, 5° C.", "value": "Yes"},
      {"measurement": "olfactory stability 2 M 45° C.", "setting": "[1]; 0.6% odor absorber in Base, 2 months, 45° C.", "value": "Yes"},
      {"measurement": "olfactory stability 2 M AT", "setting": "[1]; 0.6% odor absorber in Base, 2 months, ambient temperature", "value": "Yes"},
      {"measurement": "olfactory stability 3 M", "setting": "[1]; 0.6% odor absorber in Base, 3 months, identical at AT, 5° C. and 45° C.", "value": "Yes"},
      {"measurement": "olfactory stability t0", "setting": "[1]; 0.6% odor absorber in Base, identical at AT, 5° C. and 45° C.", "value": "Yes"},
      {"measurement": "olfactory stability, overall conclusion", "setting": "[1]; odor absorber in combination with the Base, up to 3 months", "value": "the most appropriate"}
    ]},
    {"molecule": "CCCCC(CC)COC(=O)C(C#N)=C(c1ccccc1)c1ccc(OC)cc1", "note": "(stereo not shown) [Ethylhexyl methoxycrylene]", "values": [
      {"measurement": "Solubility 1 D/AT", "setting": "[3]", "value": "Clear"},
      {"measurement": "Solubility t0/AT", "setting": "[3]", "value": "Partially soluble"},
      {"measurement": "Solubility t0/AT", "setting": "[3]; [5]", "value": "partially soluble"},
      {"measurement": "Stability", "setting": "[3]", "value": "Yes"},
      {"measurement": "Stability", "setting": "[3]; [5]", "value": "particularly satisfactory"},
      {"measurement": "Solubility 0 D/AT", "setting": "[4]", "value": "Precipitate"},
      {"measurement": "Solubility t0/AT", "setting": "[4]", "value": "Soluble fraction"},
      {"measurement": "Stability", "setting": "[4]", "value": "No"}
    ]},
    {"molecule": "CO[C@H]1CO[C@H]2[C@@H]1OC[C@H]2OC", "note": "[Dimethyl isosorbide]", "values": [
      {"measurement": "Solubility 1 D/AT", "setting": "[3]", "value": "Clear"},
      {"measurement": "Solubility t0/AT", "setting": "[3]", "value": "Partially soluble"},
      {"measurement": "Solubility t0/AT", "setting": "[3]; listed as dimethyl isosorbide", "value": "partially soluble"},
      {"measurement": "Stability", "setting": "[3]", "value": "Yes"},
      {"measurement": "Solubility t0/AT", "setting": "[4]; resveratrol in the named solvent, initial, ambient temperature", "value": "Partially soluble"},
      {"measurement": "Solubility 0 D/AT", "setting": "[4]; resveratrol in the named solvent, same day, ambient temperature", "value": "Precipitate"},
      {"measurement": "Stability", "setting": "[4]; stabilization of resveratrol by the named solvent", "value": "No"}
    ]},
    {"molecule": "CCCCCCCCCCC(CO)CCCCCCCC", "note": "(stereo not shown) [Octyldodecanol]", "values": [
      {"measurement": "Solubility 1 D/AT", "setting": "[3]", "value": "Precipitate"},
      {"measurement": "Solubility t0/AT", "setting": "[3]", "value": "Insoluble"},
      {"measurement": "stability of diacetylresveratryl thioctate solubilized in a conventional solvent", "setting": "[3]; general observation of the applicant", "value": "recrystallizes"},
      {"measurement": "Stability", "setting": "[3]", "value": "No"}
    ]},
    {"molecule": "CCCCC(CC)COC(=O)C(C#N)=C(c1ccccc1)c1ccccc1", "note": "(stereo not shown) [Octocrylene]", "values": [
      {"measurement": "Solubility 0 D/AT", "setting": "[4]", "value": "Precipitate"},
      {"measurement": "Solubility t0/AT", "setting": "[4]", "value": "Soluble fraction"},
      {"measurement": "Stability", "setting": "[4]", "value": "No"}
    ]},
    {"molecule": "CCCCCCCCOC(=O)c1ccc(C(=O)OCCCCCCCC)c(C(=O)OCCCCCCCC)c1", "note": "[Trioctyl trimellitate]", "values": [
      {"measurement": "Solubility 1 D/AT", "setting": "[3]", "value": "Clear"},
      {"measurement": "Solubility t0/AT", "setting": "[3]", "value": "Partially soluble"},
      {"measurement": "Solubility t0/AT", "setting": "[3]; listed as trioctyl trimellitate", "value": "partially soluble"},
      {"measurement": "Stability", "setting": "[3]", "value": "Yes"}
    ]},
    {"molecule": "O=C(Oc1ccccc1)c1ccccc1", "note": "[Phenyl benzoate]", "values": [
      {"measurement": "Solubility 1 D/AT", "setting": "[3]", "value": "Clear"},
      {"measurement": "Solubility t0/AT", "setting": "[3]", "value": "Partially soluble"},
      {"measurement": "Solubility t0/AT", "setting": "[3]; listed as phenyl benzoate", "value": "partially soluble"},
      {"measurement": "Stability", "setting": "[3]", "value": "Yes"}
    ]}
  ]
}
